Laboratory results: PubChem BioAssay AID1963437 (Molecular Pharmacology Branch, DTP, NCI, 2024)
One block for each compound: values may come before it.

Test system: OVCAR-8 complex spheroid, growth inhibition
Assay: Anticancer human tumor OVCAR-8 cell line growth inhibition [Asc];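 note: spheroids exposed to agents for 7 days before readout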;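 for viability, T/C: percent viability relative to DMSO vehicle wells taken as 100%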
Conditions: for IC50: curve of first compound; for viability, T/C: stronger effect = lower value
Description: Multicellular complex tumor spheroid response to apoptosis pathway targeting inhibitors Alrizomadlin, Pelcitoclax, and Dasminapant in combination with a variety of drugs and investigational agents in selected tumor cell lines
The MDM2 inhibitor alrizomadlin, the Bcl-2/Bcl-xL inhibitor pelcitoclax, and the IAPs inhibitor dasminapant were evaluated both individually and in combination with standard of care and investigational anticancer small molecules within a complex spheroid model of solid tumors. . Complex spheroids include a stromal component modeled by human endothelial cells (HUVEC) and fibroblasts modeled by human mesenchymal stem cells (MSCs). The concentration ranges selected for each drug and investigational agent were based upon clinically achievable concentrations if the clinical Cmax of the agent was known.
Compounds. The drugs and investigational agents: alrizomadlin (APG-115; NSC831270), pelcitoclax (APG-1252; NSC835773), dasminapant (APG-1387;NSC834197), TAK-243 (NSC785004), copanlisib (NSC809693), olaparib (NSC753686), talazoparib (NSC767125), cobimetinib (NSC 768068), eltanexor (KPT-8602, NSC 794443), abemaciclib (NSC 768073), sotorasib (NSC818433), adagrasib (NSC 831453), MRTX-1133 (NSC 836407), Iadademestat (ORY1001, NSC 806812), and RMC-4630 (NSC839698), were obtained from the NCI Developmental Therapeutics Program Chemical Repository. The FDA-approved anticancer drug set is available from the Developmental Therapeutics Program at https://dtp.cancer.gov/organization/dscb/obtaining/available plates.htm. […] The stock solutions were prepared in dimethyl sulfoxide (DMSO, Sigma-Aldrich, St. Louis, MO, cat. D2650) at 800-fold the tested concentration and stored at -70 degrees C prior to their use. All drugs and investigational agents were tested over a range starting from a high concentration at or near the clinical Cmax and decreasing in half-log increments. If the clinical Cmax for an agent had not been determined, the highest concentration tested was 10 microM.
The patient-derived cancer (PDC) cell lines include five colon adenocarcinomas: 186277-243-T-J2-PDC, 616215-338-R-J1-PDC, 439559-082-T-J2-PDC, 463943-066-T-J2-PDC, and 519858-162-T-J1-PDC; three pancreatic carcinomas: 323965-272-R-J2-PDC, 521955-158-R6-J3-PDC, and 521955-158-R2-J5-PDC; two uterine sarcomas: 327498-152-R-J2-PDC and 993429-296-R-J1-PDC; two rhabdomyosarcomas: 755483-174-R-J1-PDC and 772245-204-R-J1-PDC; two soft tissue sarcomas: 126254-015-R-J1-PDC and 494315-158-R-J1-PDC; two malignant fibrous histiocytomas: 317291-083-R-J1-PDC and 596521-263-R-J1-PDC; two breast carcinomas: 171881-019-R-J1-PDC and 885512-296-R-J2-PDC; and one ovarian carcinoma: 6556581-035-R-J-PDC were obtained from the NCI PDMR, (https://pdmr.cancer.gov). The established cell lines HSSY-2 synovial sarcoma (RRID:CVCL 8719), SYO-1 synovial sarcoma (RRID:CVCL_7146), MPNST malignant peripheral neural sheath tumor were obtained from the Sloan Kettering Institute. The following established cell lines were purchased from the American Type Culture Collection (ATCC, Manassas, VA), Sor the received from the NCI repository:, PANC-1 pancreatic carcinoma (CRL-1469, RRID:CVCL_0480), OVCAR-5 ovarian carcinoma (RRID:CVCL_1628), OVCAR-8 ovarian carcinoma (RRID:CVCL_1629), , MCF-7 breast carcinoma (CRL-12584, RRID:CVCL_0031), MDA-MB-231 breast carcinoma (CRL-12532, RRID:CVCL_0062), NCI-H1876 small cell lung carcinoma (CRL-5902, RRID:CVCL_1503), NCI-H510A small cell lung carcinoma (HTB-184, RRID:CVCL_1565), NCI-H1417 (CRL-5869, RRID:CVCL_1469), and NCI-H196 small cell lung carcinoma (CRL-5823, RRID:CVCL_1509). Dr. Peter Houghton (Greehey Children's Cancer Research Institute, University of Texas Health Science Center, San Antonio, TX) provided Rh-18 rhabdomyosarcoma (RRID:CVCL_1659). Pooled donor human umbilical vein endothelial cells (HUVEC, Lonza, cat. CC-2519) and human mesenchymal stem cells (hMSC, Lonza, cat. PT-2501) were purchased from Lonza (Walkersville, MD).
Cell Culture. […]

[1] = second compound 0.00949 µM, first compound 0.0316 µM
[2] = second compound 0.00949 µM, first compound 0.1 µM
[3] = second compound 0.03 µM, first compound 0.0316 µM
[4] = second compound 0.03 µM, first compound 0.1 µM
[5] = second compound 0.0949 µM, first compound 0.0316 µM
[6] = second compound 0.0949 µM, first compound 0.1 µM
[7] = second compound 0.3 µM, first compound 0.0316 µM
[8] = second compound 0.3 µM, first compound 0.1 µM
[9] = second compound 0.949 µM, first compound 0.0316 µM
[10] = second compound 0.949 µM, first compound 0.1 µM
[11] = second compound 3 µM, first compound 0.0316 µM
[12] = second compound 3 µM, first compound 0.1 µM

- IC50 (second compound 0.00949 µM): > 0.1 µM
- IC50 (second compound 0.03 µM): > 0.1 µM
- IC50 (second compound 0.0949 µM): > 0.1 µM
- IC50 (second compound 0.3 µM): > 0.1 µM
- IC50 (second compound 0.949 µM): > 0.1 µM
- IC50 (second compound 3 µM): > 0.1 µM
Structure (SMILES): Cn1ncnc1[C@H]1c2n[nH]c(=O)c3cc(F)cc(c23)N[C@@H]1c1ccc(F)cc1 + CCN1C(C(=O)NC23CCC(C(=O)O)(CC2)CC3)C(c2cccc(Cl)c2F)C2(C(=O)Nc3cc(Cl)ccc32)C12CCCCC2
- viability, T/C (second compound 0.00949 µM, first compound 0.000316 µM): 90.7%
- viability, T/C (second compound 0.00949 µM, first compound 0.001 µM): 82.6%
- viability, T/C (second compound 0.00949 µM, first compound 0.00316 µM): 105%
- viability, T/C (second compound 0.00949 µM, first compound 0.01 µM): 111%
- viability, T/C [1]: 105%
- viability, T/C [2]: 128%
- viability, T/C (second compound 0.03 µM, first compound 0.000316 µM): 96%
- viability, T/C (second compound 0.03 µM, first compound 0.001 µM): 94.3%
- viability, T/C (second compound 0.03 µM, first compound 0.00316 µM): 104%
- viability, T/C (second compound 0.03 µM, first compound 0.01 µM): 109%
- viability, T/C [3]: 107%
- viability, T/C [4]: 126%
- viability, T/C (second compound 0.0949 µM, first compound 0.000316 µM): 89.8%
- viability, T/C (second compound 0.0949 µM, first compound 0.001 µM): 93.7%
- viability, T/C (second compound 0.0949 µM, first compound 0.00316 µM): 110%
- viability, T/C (second compound 0.0949 µM, first compound 0.01 µM): 95.5%
- viability, T/C [5]: 127%
- viability, T/C [6]: 101%
- viability, T/C (second compound 0.3 µM, first compound 0.000316 µM): 87.8%
- viability, T/C (second compound 0.3 µM, first compound 0.001 µM): 110%
- viability, T/C (second compound 0.3 µM, first compound 0.00316 µM): 97.7%
- viability, T/C (second compound 0.3 µM, first compound 0.01 µM): 97%
- viability, T/C [7]: 106%
- viability, T/C [8]: 123%
- viability, T/C (second compound 0.949 µM, first compound 0.000316 µM): 111%
- viability, T/C (second compound 0.949 µM, first compound 0.001 µM): 92%
- viability, T/C (second compound 0.949 µM, first compound 0.00316 µM): 95.3%
- viability, T/C (second compound 0.949 µM, first compound 0.01 µM): 97.1%
- viability, T/C [9]: 109%
- viability, T/C [10]: 126%
- viability, T/C (second compound 3 µM, first compound 0.000316 µM): 98.6%
- viability, T/C (second compound 3 µM, first compound 0.001 µM): 94.3%
- viability, T/C (second compound 3 µM, first compound 0.00316 µM): 104%
- viability, T/C (second compound 3 µM, first compound 0.01 µM): 117%
- viability, T/C [11]: 115%
- viability, T/C [12]: 139%

- IC50 (second compound 0.00949 µM): > 10 µM
- IC50 (second compound 0.03 µM): > 10 µM
- IC50 (second compound 0.0949 µM): > 10 µM
- IC50 (second compound 0.3 µM): > 10 µM
- IC50 (second compound 0.949 µM): > 10 µM
- IC50 (second compound 3 µM): > 10 µM
Structure (SMILES): O=C(c1cc(Cc2n[nH]c(=O)c3ccccc23)ccc1F)N1CCN(C(=O)C2CC2)CC1 + CCN1C(C(=O)NC23CCC(C(=O)O)(CC2)CC3)C(c2cccc(Cl)c2F)C2(C(=O)Nc3cc(Cl)ccc32)C12CCCCC2
- viability, T/C [1]: 99.8%
- viability, T/C [2]: 86%
- viability, T/C (second compound 0.00949 µM, first compound 0.316 µM): 85.7%
- viability, T/C (second compound 0.00949 µM, first compound 1 µM): 98.2%
- viability, T/C (second compound 0.00949 µM, first compound 3.16 µM): 97.8%
- viability, T/C (second compound 0.00949 µM, first compound 10 µM): 102%
- viability, T/C [3]: 93.2%
- viability, T/C [4]: 94%
- viability, T/C (second compound 0.03 µM, first compound 0.316 µM): 87.5%
- viability, T/C (second compound 0.03 µM, first compound 1 µM): 100%
- viability, T/C (second compound 0.03 µM, first compound 3.16 µM): 119%
- viability, T/C (second compound 0.03 µM, first compound 10 µM): 102%
- viability, T/C [5]: 101%
- viability, T/C [6]: 91.7%
- viability, T/C (second compound 0.0949 µM, first compound 0.316 µM): 94.2%
- viability, T/C (second compound 0.0949 µM, first compound 1 µM): 87.6%
- viability, T/C (second compound 0.0949 µM, first compound 3.16 µM): 120%
- viability, T/C (second compound 0.0949 µM, first compound 10 µM): 115%
- viability, T/C [7]: 85.2%
- viability, T/C [8]: 85.9%
- viability, T/C (second compound 0.3 µM, first compound 0.316 µM): 93.3%
- viability, T/C (second compound 0.3 µM, first compound 1 µM): 91.4%
- viability, T/C (second compound 0.3 µM, first compound 3.16 µM): 103%
- viability, T/C (second compound 0.3 µM, first compound 10 µM): 120%
- viability, T/C [9]: 99.6%
- viability, T/C [10]: 108%
- viability, T/C (second compound 0.949 µM, first compound 0.316 µM): 105%
- viability, T/C (second compound 0.949 µM, first compound 1 µM): 95.5%
- viability, T/C (second compound 0.949 µM, first compound 3.16 µM): 96.3%
- viability, T/C (second compound 0.949 µM, first compound 10 µM): 114%
- viability, T/C [11]: 115%
- viability, T/C [12]: 104%
- viability, T/C (second compound 3 µM, first compound 0.316 µM): 114%
- viability, T/C (second compound 3 µM, first compound 1 µM): 103%
- viability, T/C (second compound 3 µM, first compound 3.16 µM): 125%
- viability, T/C (second compound 3 µM, first compound 10 µM): 107%
